We go through 3 compounds from US20230048888A1, “USE OF TRIAZOLOTRIAZINE DERIVATIVE IN TREATMENT OF DISEASES” (ZHEJIANG VIMGREEN PHARMACEUTICALS, LTD., priority 2019, published 2023).

Data set [1] addresses T1, Human adenosine ADORA2A receptor membrane protein (Homo sapiens, UniProt P29274).
T1 construct: purchased PerkinElmer RBHA2AM400UA
Kind of data set: Radioisotope ligand competitive binding, ADORA2A ([3H] CGS-21680). Particulars: ADORA2A (IC50, nM, n = 3), binding test. On the procedure:
ADORA2A: 50 mM Tris-HCl pH 7.4, 10 mM MgCl2, 1 mM EDTA
(§1) 4) Preparation of compounds: the test compounds and the reference compounds were separately diluted with 100% DMSO.
(§2) 1 μL of a sample to be tested and 1 μL of a reference compound were added to a 96-well plate in sequence. […] 100 μL of cells and 100 μL of isotopes were added to all experimental wells. The 96-well plate was sealed; ADORA1, ADORA2B, and ADORA3 were incubated for 1 hour on a shaker (300 rpm) at room temperature (22° C.); and ADORA2A was incubated for 2 hours on a shaker (300 rpm) at room temperature (22° C.). At the same time, a GF/C filter plate was soaked with ADORA1, ADORA2A, ADORA2B, and ADORA3 by using 0.3% PEI for at least 30 minutes at room temperature, at 50 μL/well. After the incubation was completed, the incubated reaction system was collected onto the GF/C filter plate with a Harvester, washed 4 times and then dried for 0.5 hours in an oven at 50° C. The bottom of the dried GF/C filter plate was sealed with a film, 50 μL of scintillation solution was added to each well, which was then sealed with a Top-seal-A film. With Microbeta readings, the data was analyzed by GraphPad Prism 5.0.
(§3) % Inhibition=100×(1−(Sample_raw value−Low control_Average)/(High control_Average−Low control_Average))
(§4) The data was fitted with “log(inhibitor) vs response-variable slope” in GraphPad Prism 5.0 to obtain IC50.

Data set [2] concerns the target T2, Human adenosine ADORA2B receptor membrane protein (Homo sapiens, UniProt P29275).
T2 construct: purchased PerkinElmer ES-013-M400UA
T2 sequence (P29275 1-332): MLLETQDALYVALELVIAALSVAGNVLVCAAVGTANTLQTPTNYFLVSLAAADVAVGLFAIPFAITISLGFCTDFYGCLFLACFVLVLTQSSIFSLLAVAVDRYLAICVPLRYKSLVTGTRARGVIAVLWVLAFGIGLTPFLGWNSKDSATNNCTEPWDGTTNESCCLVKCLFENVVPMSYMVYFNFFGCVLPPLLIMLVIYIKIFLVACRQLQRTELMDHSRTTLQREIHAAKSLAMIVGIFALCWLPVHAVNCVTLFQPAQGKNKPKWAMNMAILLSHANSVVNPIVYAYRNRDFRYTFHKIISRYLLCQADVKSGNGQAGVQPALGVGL
Nature of the data set: Radioisotope ligand competitive binding, ADORA2B ([3H] DPCPX). Particulars: ADORA2B (IC50, nM, n = 3), binding test. On the procedure:
ADORA2B: 50 mM HEPES pH 7.0, 5 mM MgCl2, 1 mM EDTA
as §1, §2, §3, §4

In another data set the test system is B16F10 tumor cells. Nature of the data set: B16F10 murine melanoma model. The format is in vivo. The conditions noted are these: for Tumor inhibition rate (%): Day 18. On the procedure:
The B16F10 murine melanoma model is a classic melanoma pharmaceutical effect evaluation model, which is made by subcutaneously inoculating the same B16F10 tumor cells into female C57BL/6 mice. The test compounds were administrated to evaluate their inhibitory effects on tumor growth in the model.
B16F10 tumor cells were cultured in a DMEM medium containing inactivated 10% fetal bovine serum, 100 U/ml penicillin, 100 μg/ml streptomycin and 2 mM glutamine in an incubator at 37° C. in the presence of 5% CO2; and after the cells grew all over, the tumor cells were divided and passaged in respective flasks every 3 to 4 days. The tumor cells in the logarithmic growth phase were used for in vivo inoculation of tumors.
The B16F10 tumor cells resuspended in a serum-free DMEM culture solution were inoculated subcutaneously at 1×10^5/100 μl to the right ribs of experimental animals. In the second group, when the tumor grew to 75 mm^3, 12 animals with a uniform tumor volume were selected and administered according to the experimental design.
The first day of tumor inoculation was D0, the first, third, and fourth groups were dosed on the second day of tumor inoculation, and the second group was dosed when the tumor volume reached 75 mm^3.
Tumor volume: the tumor volume was measured 3 times a week with a vernier caliper, and the long and short diameters of the tumor were measured. The volume was calculated with a formula as follows:
volume=0.5×long diameter×short diameter^2.
Tumor growth inhibition rate (TGI, %)=(1-T/C)×100.
T/C(%)=(average tumor volume of treatment groups on the current day-average tumor volume of treatment groups on the initial day D0)/(average tumor volume of the control group on the current day-average tumor volume of the control group on the initial day D0)×100.

Data set [3] has as its system haloperidol-induced stiffness. Nature of the data set: Haloperidol-induced Wistar rat stiffness model (bar test, rearing). Type of data set: in vivo, Wistar rats. The conditions noted are these: 10 mg/kg intragastric. The procedure: Time of bar test: The stiffness of the rats was tested by the bar test. That is, a wooden bar with a diameter of 8 mm was fixed between 2 iron stands and was 10 cm from the bench top; and then, the rat's tail was grabbed to make its front paws rest on the wooden bar and its hind paws or buttocks on the ground. Generally, the rat needs to acclimate several times when it was tested for the first time. The time for the forelimbs to drop from the bar or the time for the hind limbs to leave the bench top were tested, each rat was tested 3 times. Number of standings: the number of standings of the rat was measured by the rearing test. That is, the rat was placed in a 27*52 cm cage and acclimate for 5 minutes, and the spontaneous activity behavior, i.e., the number of standings, of the rat within 10 minutes was recorded. When the rat's hind limbs stood with two forelimbs raised over the shoulders and touched the ground, one standing is counted, and the one forelimb lift was excluded. Generally, the rat would raise its forelimbs to touch the cage wall. If the rat raised its forelimbs over the shoulders several times without falling to the ground, only one standing was counted. The time of bar test was taken as a measurement index, including the average time and the maximum time. Long time indicates severe stiffness, short time indicates mild stiffness. After drug treatment, the shorter the time of bar test, the better the effect of the drug on relieving stiffness. The number of standings was counted by the rearing test. The more the number of standings, the more frequent the spontaneous exploration activity of the rat, and the lower the stiffness. The statistical analysis between groups was performed on the data by using Prism GraphPad 7.0 independent sample T test, and P<0.05 was considered as a significant difference.

T1 sequence (P29274 whole entry): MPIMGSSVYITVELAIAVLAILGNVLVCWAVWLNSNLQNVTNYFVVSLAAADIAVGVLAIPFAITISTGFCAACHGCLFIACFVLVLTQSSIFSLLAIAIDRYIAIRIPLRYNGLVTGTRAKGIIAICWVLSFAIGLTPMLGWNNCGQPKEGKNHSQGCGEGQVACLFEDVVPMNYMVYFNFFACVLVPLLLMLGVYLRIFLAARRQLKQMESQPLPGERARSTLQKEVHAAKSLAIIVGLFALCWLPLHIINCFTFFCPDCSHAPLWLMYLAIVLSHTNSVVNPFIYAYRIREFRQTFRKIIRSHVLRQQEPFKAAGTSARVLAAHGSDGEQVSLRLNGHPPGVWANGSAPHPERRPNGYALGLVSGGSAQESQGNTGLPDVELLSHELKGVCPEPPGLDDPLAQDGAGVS

In general, IC50 refers to the concentration that inhibits the measured activity by half. As to `Nc1nc(NCCc2ccc(NC3COC3)cc2)nc2nc(-c3ccco3)nn12` [Compound 22, 2-(furan-2-yl)-N5-(4-(oxetan-3-ylamino)phenethyl)-[1,2,4]triazolo[1,5-a][1,3,5]triazine-5,7-diamine], the IC50 in data set [1] (Table 10 (IC50)) was 0.96 ± 0.11 nM; in data set [1] (Table 11) it was 0.85 nM; in data set [2] (Table 10 (IC50)), 344 ± 181 nM; in data set [2] (Table 11) it was 310 nM. Further, the “Tumor inhibition rate (%)” value with B16F10 tumor cells (50 mg/kg p.o. QD) was found to be 22.1%; with B16F10 tumor cells (50 mg/kg p.o. QD + Anti PD-1 10 mg/kg i.p. 2/WK), 48.1%. In addition, the “Animal death / changes in body weight” value in the data set with B16F10 tumor cells (alone or combined with anti PD-1) is reported as “No animal death or significant changes in body weight”.
`CCn1c(=O)c2c(nc(/C=C/c3ccc(OC)c(OC)c3)n2C)n(CC)c1=O` [Istradefylline, reference compound]: in data set [3], the “Average on-bar time” value was 10.33 ± 1.58 s and the “Maximum on-bar time” value was 15.38 ± 2.75 s. For the same compound, the Number of standings in data set [3] (1st hour after haloperidol) was determined as 23.25 ± 2.86.
As for `Cn1nnc(-c2ccc(CCNc3nc(N)n4nc(-c5ccco5)nc4n3)cc2)n1` [Compound 40, N5-(4-(2-methyl-2H-tetrazol-5-yl)phenethyl)-2-(furan-2-yl)-[1,2,4]triazolo[1,5-a][1,3,5]triazine-5,7-diamine], the IC50 in data set [1] (Table 10 (IC50)) was 1.85 ± 0.27 nM; in data set [1] (Table 11), 1.64 nM; in data set [2] (Table 10 (IC50)) it was 268 ± 87.5 nM; in data set [2] (Table 11) it was 242 nM.
